The values that follow come from patent US8389552B2, “(S)-6-(2-(4-(cyclobutylsulfonyl)-1H-imidazol-1-yl)-3-cyclopentylpropanamido)nicotinic acid useful as a glucokinase activator” (Pfizer Inc., priority 2009, dated 2013).

By EC50 is commonly meant the midpoint of the concentration-response curve.

Molecules are shown by their SMILES. Where two headings read alike, the source gives them in different places.

The target of the experiment is T1, Full-length glucokinase (beta cell isoform) (Homo sapiens, UniProt P35557).
T1 construct: Full-length glucokinase (beta cell isoform) was His-tagged at N-terminus; His tag (N); made in house; host or cells: E. coli BL21(DE3), pBCGK vector
T1 sequence (P35557 1-465): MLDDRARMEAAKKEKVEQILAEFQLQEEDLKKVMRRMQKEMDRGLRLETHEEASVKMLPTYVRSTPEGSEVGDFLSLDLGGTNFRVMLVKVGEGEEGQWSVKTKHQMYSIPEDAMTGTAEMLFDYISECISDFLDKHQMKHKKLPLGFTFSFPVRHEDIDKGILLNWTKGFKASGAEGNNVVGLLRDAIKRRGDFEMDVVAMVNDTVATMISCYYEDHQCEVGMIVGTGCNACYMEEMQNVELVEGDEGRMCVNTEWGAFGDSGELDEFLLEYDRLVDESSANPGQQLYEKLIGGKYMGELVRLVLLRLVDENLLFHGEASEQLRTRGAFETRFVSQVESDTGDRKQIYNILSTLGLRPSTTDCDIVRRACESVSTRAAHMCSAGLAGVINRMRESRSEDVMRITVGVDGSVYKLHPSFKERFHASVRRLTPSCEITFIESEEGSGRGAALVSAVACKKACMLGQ
Nature of the experiment: Glucokinase activation assay (PK/LDH-coupled, NADH depletion at 340 nm). Format: biochemical. The conditions noted are these: for Emax: % max activation = (Va/Vo−1)×100 from fit, pH 7.1, read-out: Maximum Activation (%). The method in brief:
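His-tagged full-length beta-cell isoform enzyme; 50 mM HEPES pH 7.1 with 5 mM glucose, 2.5 mM ATP, 3.5 mM MgCl2, 0.7 mM NADH, 0.2 mM PEP, 25 mM KCl, 0.25% DMSO, room temperature. Compound premixed 7.5 min, reaction started with enzyme; initial velocity from 0-300 s slope. % maximum activation = (Va/Vo−1)×100, measured across compound concentrations.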

[1] abbreviates: 5 mM glucose, 2.5 mM ATP, pH 7.1, room temperature, single value or range where N>1, read-out: EC50.
The mark [2] stands for this setting: 5 mM glucose, single value or range where N>1.

In the case of `Cc1cnc(NC(=O)[C@H](CC2CCOCC2)n2cnc(C(F)(F)F)c2)cn1` [Example 74, (S)—N-(5-methylpyrazin-2-yl)-3-(tetrahydro-2H-pyran-4-yl)-2-(4-(trifluoromethyl)-1H-imidazol-1-yl)propanamide], the EC50 under setting [1] was 8.7 µM. The Emax under setting [2] was found to be 115%.
On the same counts, the results for `O=C(Nc1ccc(CP(=O)(O)O)cn1)[C@H](CC1CCCC1)n1cnc(C(F)(F)F)c1` [Example 60, (S)-(6-(3-cyclopentyl-2-(4-(trifluoromethyl)-1H-imidazol-1-yl)propanamido)pyridin-3-yl)methylphosphonic acid] are 4.6 µM and 112%.
On the same counts, the results for `Cc1cnc(NC(=O)[C@H](CC2CCCC2)n2cnc(S(C)(=O)=O)c2)cn1` [Example 34, (S)-3-cyclopentyl-N-(5-methylpyrazin-2-yl)-2-(4-(methylsulfonyl)-1H-imidazol-1-yl)propanamide] are 62 µM and 236%.
On the same counts, the results for `O=C(Nc1nc2cccnc2s1)[C@H](CC1CCOCC1)n1cnc(C(F)(F)F)c1` [Example 77, (S)-3-(tetrahydro-2H-pyran-4-yl)-N-(thiazolo[5,4-b]pyridin-2-yl)-2-(4-(trifluoromethyl)-1H-imidazol-1-yl)propanamide] are 18 µM and 139%.
For the compound `CC(C)S(=O)(=O)c1cnn([C@@H](CC2CCCC2)C(=O)Nc2ncccn2)c1` [Example 5, (S)-3-cyclopentyl-2-(4-(isopropylsulfonyl)-1H-pyrazol-1-yl)-N-(pyrimidin-2-yl)propanamide], under setting [1], the EC50 was > 100 µM.
On the same count and under the same terms, next, `Cc1cnc(NC(=O)[C@H](CC2CCCC2)n2cc(C(=O)N(C)C)cn2)cn1` [Example 73, (S)-1-(3-cyclopentyl-1-(5-methylpyrazin-2-ylamino)-1-oxopropan-2-yl)-N,N-dimethyl-1H-pyrazole-4-carboxamide]: > 100 µM.
For the compound `Cc1ccc(NC(=O)[C@H](CC2CCCC2)n2nnc(S(C)(=O)=O)n2)nc1` [Example 80, (S)-3-cyclopentyl-N-(5-methylpyridin-2-yl)-2-(5-(methylsulfonyl)-2H-tetrazol-2-yl)propanamide], the EC50 under setting [1] worked out at 32 µM. The Emax under setting [2] is 86%.
On the same counts, the results for `Cc1ccc(NC(=O)[C@H](CC2CCCC2)n2cc(S(C)(=O)=O)cn2)nc1` [Example 8, (S)-3-cyclopentyl-N-(5-methylpyridin-2-yl)-2-(4-(methylsulfonyl)-1H-pyrazol-1-yl)propanamide] are 3.8 µM and 100%.
Turning to `Cc1ccc(NC(=O)[C@H](CC2CCCC2)n2cc(C(=O)N(C)C)cn2)nc1` [Example 72, (S)-1-(3-cyclopentyl-1-(5-methylpyridin-2-ylamino)-1-oxopropan-2-yl)-N,N-dimethyl-1H-pyrazole-4-carboxamide], the concentration giving a half-maximal response (EC50) under setting [1] is > 100 µM.
On to `Cc1cnc(NC(=O)[C@H](CC2CCCC2)n2cnc(S(=O)(=O)C(C)C)c2)cn1` [Example 30, (S)-3-cyclopentyl-2-(4-(isopropylsulfonyl)-1H-imidazol-1-yl)-N-(5-methylpyrazin-2-yl)propanamide], for which the EC50 under setting [1] was 10 µM. For the same compound, under setting [2], the Emax was 100%.
On the same counts, the results for `CC(C)(O)Cn1ccc(NC(=O)[C@H](CC2CCCC2)n2cnc(C(F)(F)F)c2)n1` [Example 56, (S)-3-cyclopentyl-N-(1-(2-hydroxy-2-methylpropyl)-1H-pyrazol-3-yl)-2-(4-(trifluoromethyl)-1H-imidazol-1-yl)propanamide] are 5.2 µM and 167%.
The corresponding values for `CC(C)S(=O)(=O)c1cnn([C@@H](CC2CCCC2)C(=O)Nc2ccccn2)c1` [Example 16, (S)-3-cyclopentyl-2-(4-(isopropylsulfonyl)-1H-pyrazol-1-yl)-N-(pyridin-2-yl)propanamide] are 1.9 µM and 48%.
On the same counts, the results for `O=C(O)c1ccc(NC(=O)[C@H](CC2CCCCC2)n2cnc(C(F)(F)F)c2)nc1` [Example 90, (S)-6-(3-cyclohexyl-2-(4-(trifluoromethyl)-1H-imidazol-1-yl)propanamido)nicotinic acid] are 0.2 to 0.3 µM and 120 to 138%.
`Cn1ccc(NC(=O)[C@H](CC2CCCC2)n2cnc(C(F)(F)F)c2)n1` [Example 43, (S)-3-cyclopentyl-N-(1-methyl-1H-pyrazol-3-yl)-2-(4-(trifluoromethyl)-1H-imidazol-1-yl)propanamide]: under setting [1], the EC50 was in the range of 2.9 to 3.5 µM. The Emax under setting [2] was in the range of 147 to 166%.
On to `Cc1ccc(NC(=O)[C@H](CC2CCCC2)n2cc(S(=O)(=O)C(C)C)cn2)nc1` [Example 1, (S)-3-cyclopentyl-2-(4-(isopropylsulfonyl)-1H-pyrazol-1-yl)-N-(5-methylpyridin-2-yl)propanamide], for which the EC50 under setting [1] fell in the range of 0.3 to 0.6 µM. For the same compound, the Emax under setting [2] is 38 to 50%.
Take `O=C(O)c1ccc(NC(=O)[C@H](CC2CCCC2)n2cnc(C(F)(F)F)n2)nc1` [Example 88, (S)-6-(3-cyclopentyl-2-(3-(trifluoromethyl)-1H-1,2,4-triazol-1-yl)propanamido)nicotinic acid]: the EC50 under setting [1] stood at 0.7 µM. Moreover, the Emax under setting [2] was 150%.
As for `Cn1ccc(NC(=O)[C@H](CC2CCCC2)n2cnc(S(C)(=O)=O)c2)n1` [Example 36, (S)-3-cyclopentyl-N-(1-methyl-1H-pyrazol-3-yl)-2-(4-(methylsulfonyl)-1H-imidazol-1-yl)propanamide], under setting [1], the half-maximal effective concentration (EC50) was 23 µM. For the same compound, the Emax under setting [2] came out at 125%.
On to `CN(C)C(=O)c1cnn([C@@H](CC2CCCC2)C(=O)Nc2ccn(C)n2)c1` [Example 71, (S)-1-(3-cyclopentyl-1-(1-methyl-1H-pyrazol-3-ylamino)-1-oxopropan-2-yl)-N,N-dimethyl-1H-pyrazole-4-carboxamide], for which, under setting [1], the EC50 was > 30 µM.
On to `O=C(Nc1cnccn1)[C@H](CC1CCCC1)n1cnc(C(F)(F)F)n1` [Example 84, (S)-3-cyclopentyl-N-(pyrazin-2-yl)-2-(3-(trifluoromethyl)-1H-1,2,4-triazol-1-yl)propanamide], for which, under setting [1], the half-maximal effective concentration (EC50) is 10 µM. Besides, the Emax under setting [2] is 171%.
Turning to `Cc1ccc(NC(=O)[C@H](CC2CCCC2)n2cnc(S(C)(=O)=O)c2)nc1` [Example 35, (S)-3-cyclopentyl-N-(5-methylpyridin-2-yl)-2-(4-(methylsulfonyl)-1H-imidazol-1-yl)propanamide], under setting [1], the EC50 came out at 0.8 µM. Under setting [2], the Emax is 100%.
The corresponding values for `CC(C)(O)C(=O)Nc1ccc(NC(=O)[C@H](CC2CCCC2)n2cnc(C(F)(F)F)c2)nc1` [Example 67, (S)-3-Cyclopentyl-N-[5-(2-hydroxy-2-methyl-propionylamino)-pyridin-2-yl]-2-(4-trifluoromethyl-imidazol-1-yl)-propionamide] are 2.8 µM and 104%.
For `Cc1cnc(NC(=O)[C@H](CC2CCCC2)n2nnc(S(C)(=O)=O)n2)cn1` [Example 81, (S)-3-cyclopentyl-N-(5-methylpyrazin-2-yl)-2-(5-(methylsulfonyl)-2H-tetrazol-2-yl)propanamide], under setting [1], the concentration for a half-maximal effect (EC50) was > 50 µM.
For the compound `CCOP(=O)(OCC)c1ccc(NC(=O)[C@H](CC2CCCC2)n2cnc(C(F)(F)F)c2)nc1` [Example 59, (S)-diethyl 6-(3-cyclopentyl-2-(4-(trifluoromethyl)-1H-imidazol-1-yl)propanamido)pyridin-3-ylphosphonate], the midpoint of the response, the EC50, lay at 14 µM. The Emax under setting [2] is 81%.
Regarding `CC(C)S(=O)(=O)c1cnn([C@@H](CC2CCCC2)C(=O)Nc2cnccn2)c1` [Example 2, (S)-3-cyclopentyl-2-(4-(isopropylsulfonyl)-1H-pyrazol-1-yl)-N-(pyrazin-2-yl)propanamide], under setting [1], the concentration giving a half-maximal response (EC50) lay in the range of 9 to 16.5 µM. Besides, the Emax under setting [2] fell in the range of 84 to 90%.
For the compound `Cc1ccc(NC(=O)[C@H](CC2CCCC2)n2cnc(S(C)(=O)=O)n2)nc1` [Example 25, (S)-3-cyclopentyl-N-(5-methylpyridin-2-yl)-2-(3-(methylsulfonyl)-1H-1,2,4-triazol-1-yl)propanamide], under setting [1], the EC50 is 3.9 µM. For the same compound, under setting [2], the Emax turned out to be 116%.
In the case of `O=C(Nc1cnc([C@H](O)CO)cn1)[C@H](CC1CCCC1)n1cnc(C(F)(F)F)c1` [Example 50, (S)-3-cyclopentyl-N-(5-((S)-1,2-dihydroxyethyl)pyrazin-2-yl)-2-(4-(trifluoromethyl)-1H-imidazol-1-yl)propanamide], the EC50 under setting [1] lay in the range of 2.6 to 4.2 µM. Besides, the Emax under setting [2] is 121 to 140%.
On the same counts, the results for `Cc1nc(C(F)(F)F)cn1[C@@H](CC1CCCC1)C(=O)Nc1ccc(C(=O)O)cn1` [Example 92, (S)-6-(3-cyclopentyl-2-(2-methyl-4-(trifluoromethyl)-1H-imidazol-1-yl)propanamido)nicotinic acid] are 0.4 to 1.2 µM and 158 to 168%.
`Cc1ccc(NC(=O)[C@H](CC2CCCC2)n2ncc(C(F)(F)F)c2C)nc1` [Example 97, (S)-3-cyclopentyl-2-(5-methyl-4-(trifluoromethyl)-1H-pyrazol-1-yl)-N-(5-methylpyridin-2-yl)propanamide]: under setting [1], the 50% effective concentration (EC50) turned out to be 28 µM. The Emax under setting [2] amounted to 136%.
